Read-outs that look alike come from different tables or passages of the source.
Key:
[1] = tested on: oil/gas field-isolated sulfate reducing bacteria (SRB); assay: Biocidal activity against oil/gas field-isolated sulfate reducing bacteria under anaerobic environment in deaerated salt solution; type: cell-based
Experimental: (§1) A sterile 0.85% NaCl solution is contaminated with bacterial inoculums at final bacterial concentrations of ˜10^7 CFU/mL. At day zero, either oxazolidine compound (BIOBAN™ CS-1135, 78% 4,4-dimethyloxazolidine in water, The Dow Chemical Company, or BIOBAN™ CS-1246, 97.5% 7-ethylbicyclooxazolidine in water, The Dow Chemical Company), THPS (AQUCAR™ THPS 75, 75% THPS in water, The Dow Chemical Company), or a combination of oxazolidine compound and THPS is added and the solution mixed well to provide a desired final concentration. […]
The protocol used to test against oil/gas field-isolated sulfate reducing bacteria (SRB) is performed as described above, but under anaerobic environment (Bactron III anaerobic chamber) and using a deaerated sterile salt solution (1.2490 g NaCl, 2.9290 g NaHCO3, 0.1910 g Na2CO3, 0.0060 g Na2SO4, 0.033 g CaCl2, and 0.0590 g MgCl2.6H2O in 1 L water) instead of 0.85% NaCl solution.
(§2) The testing protocol described in Example 1 is used for aerobic bacteria and anaerobic sulfate reducing bacteria.

[2] = tested on: Staphylococcus aureus ATCC 6538, Klebsiella pneumoniae ATCC 8308, Bacillus subtillus ATCC 8473, Escherichia coli ATCC 11229; assay: Biocidal activity against standard aerobic bacterial strains in 0.85% NaCl solution, live count by serial dilution; type: cell-based; details: biocide alone; average for four standard aerobic bacteria; ~10^7 CFU/mL, 37° C.
Experimental: as §1
The testing protocol described above is used for the standard bacterial strains Staphylococcus aureus ATCC 6538, Klebsiella pneumoniae ATCC 8308, Bacillus subtillus ATCC 8473, Escherichia coli ATCC 11229.
as §2

[3] = biocide alone, field anaerobic SRB, anaerobic chamber

Compound | Concentration required to achieve at least 3 log bacterial reduction in 1 hr [1, 3] | Concentration required to achieve at least 3 log bacterial reduction in 1 hr [2] | Concentration required to achieve at least 3 log bacterial reduction in 1 hr [1]
CCC12COCN1COC2 [7-ethylbicyclooxazolidine, 5-ethyl-1-aza-3,7-dioxabicyclo[3.3.0]octane] | >1000 ppm, active | 272.04 ppm, active | –
tetrakis(hydroxymethyl)phosphonium sulfate [THPS] | – | 44.49 ppm, active | 33.35 ppm, active
CC1(C)COCN1 [4,4-dimethyloxazolidine] | 1000 ppm, active | 272.04 ppm, active | –

From patent US9139796B2, “Methods of and formulations for reducing and inhibiting the growth of the concentration of microbes in water-based fluids and systems used with them” (Dow Global Technologies LLC, priority 2007, dated 2015)
